ChEMBL document CHEMBL1201862, “PubChem BioAssay data set” (2004)
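How tested: cells in 96-well plates exposed to compound for 48 hours at five concentrations. At the GI50, growth is halved.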 The source made the active and inactive calls. Cut-off read from the data, not from the text of the source: active = GI50 up to about 1.1 µM and inactive = higher.

Assays:
Assay in all cases: NCI anticancer screen, dose series, 48 h
HCT-15 = test system: HCT-15
A498 = test system: A498
HT-29 = test system: HT-29
PC-3 = test system: PC-3
EKVX = test system: EKVX
UACC-257 = test system: UACC-257
OVCAR-3 = test system: OVCAR-3
786-0 = test system: 786-0
HCT-116 = test system: HCT-116
MCF7 = test system: MCF7
A549 = test system: A549
COLO 205 = test system: COLO 205
Hs-578T = test system: Hs-578T
MDA-MB-231 = test system: MDA-MB-231
HOP-62 = test system: HOP-62
OVCAR-8 = test system: OVCAR-8
TK-10 = test system: TK-10
UACC-62 = test system: UACC-62
SNB-19 = test system: SNB-19
NCI-H23 = test system: NCI-H23
ACHN = test system: ACHN
BT-549 = test system: BT-549
SR = test system: SR
NCI-H226 = test system: NCI-H226
SW-620 = test system: SW-620
HL-60 = test system: HL-60
SNB-75 = test system: SNB-75
SN12C = test system: SN12C
SF-295 = test system: SF-295
NCI-H460 = test system: NCI-H460
DU-145 = test system: DU-145
MDA-MB-435 = test system: MDA-MB-435
SF-539 = test system: SF-539
NCI/ADR-RES = test system: NCI/ADR-RES
SK-OV-3 = test system: SK-OV-3
LOX IMVI = test system: LOX IMVI
IGROV-1 = test system: IGROV-1
OVCAR-4 = test system: OVCAR-4
SF-268 = test system: SF-268
UO-31 = test system: UO-31
OVCAR-5 = test system: OVCAR-5
Malme-3M = test system: Malme-3M
RXF 393 = test system: RXF 393
CCRF-CEM = test system: CCRF-CEM
SK-MEL-2 = test system: SK-MEL-2
HOP-92 = test system: HOP-92
CAKI-1 = test system: CAKI-1
M14 = test system: M14
T47D = test system: T47D
RPMI-8226 = test system: RPMI-8226
K562 = test system: K562
SK-MEL-28 = test system: SK-MEL-28
MDA-N = test system: MDA-N
KM12 = test system: KM12
U-251 = test system: U-251
SK-MEL-5 = test system: SK-MEL-5
NCI-H522 = test system: NCI-H522
MOLT-4 = test system: MOLT-4

Measured: GI50

O=C(O)/C=C(/C(=O)O)C12CCN3CC4=CCOC5CC(=O)NC1C5C4CC32 (centres undefined)
inactive: A498 > 100 µM | HT-29 > 100 µM | PC-3 > 100 µM | EKVX > 100 µM | UACC-257 > 100 µM | OVCAR-3 > 100 µM | 786-0 > 100 µM | HCT-116 > 100 µM | MCF7 > 100 µM | A549 > 100 µM | COLO 205 > 100 µM | Hs-578T > 100 µM | MDA-MB-231 > 100 µM | HOP-62 > 100 µM | OVCAR-8 > 100 µM | TK-10 > 100 µM | UACC-62 > 100 µM | SNB-19 > 100 µM | NCI-H23 > 100 µM | ACHN > 100 µM | BT-549 > 100 µM | SR > 100 µM | NCI-H226 > 100 µM | SW-620 > 100 µM | HL-60 > 100 µM | SNB-75 > 100 µM | SN12C > 100 µM | SF-295 > 100 µM | NCI-H460 > 100 µM | DU-145 > 100 µM | MDA-MB-435 > 100 µM | SF-539 > 100 µM | NCI/ADR-RES > 100 µM | SK-OV-3 > 100 µM | LOX IMVI > 100 µM | IGROV-1 > 100 µM | OVCAR-4 > 100 µM | SF-268 > 100 µM | UO-31 > 100 µM | OVCAR-5 > 100 µM | Malme-3M > 100 µM | RXF 393 > 100 µM | CCRF-CEM > 100 µM | SK-MEL-2 > 100 µM | HOP-92 > 100 µM | CAKI-1 > 100 µM | M14 > 100 µM | T47D > 100 µM | RPMI-8226 > 100 µM | K562 > 100 µM | SK-MEL-28 > 100 µM | MDA-N > 100 µM | KM12 > 100 µM | U-251 > 100 µM | SK-MEL-5 > 100 µM | NCI-H522 > 100 µM | MOLT-4 > 100 µM
> 100 µM: HCT-15

COc1ncc(C=C(C#N)C#N)c(OC)n1
29.9 µM: HCT-15
inactive: A498 > 100 µM | HT-29 40 µM | PC-3 39.2 µM | EKVX 79.8 µM | UACC-257 22.1 µM | OVCAR-3 57.9 µM | 786-0 19.3 µM | HCT-116 26.1 µM | MCF7 36.7 µM | A549 > 100 µM | COLO 205 36 µM | Hs-578T 60.7 µM | MDA-MB-231 41.5 µM | HOP-62 83.6 µM | OVCAR-8 24.2 µM | TK-10 37.3 µM | UACC-62 33.8 µM | SNB-19 52.6 µM | NCI-H23 31.3 µM | ACHN 48.5 µM | BT-549 33.7 µM | SR 15.3 µM | NCI-H226 > 100 µM | SW-620 26.2 µM | HL-60 16.7 µM | SNB-75 > 100 µM | SN12C 26.8 µM | SF-295 85.5 µM | NCI-H460 41 µM | DU-145 52.5 µM | MDA-MB-435 26 µM | SF-539 30.8 µM | NCI/ADR-RES 22.6 µM | SK-OV-3 > 100 µM | LOX IMVI 30.2 µM | IGROV-1 59.3 µM | OVCAR-4 48.9 µM | SF-268 61.8 µM | UO-31 21.1 µM | OVCAR-5 86.7 µM | Malme-3M 35.2 µM | RXF 393 > 100 µM | CCRF-CEM 7.48 µM | SK-MEL-2 32.3 µM | HOP-92 > 100 µM | CAKI-1 36.1 µM | M14 18.7 µM | T47D > 100 µM | RPMI-8226 24 µM | K562 38.6 µM | SK-MEL-28 44.8 µM | MDA-N 26.9 µM | KM12 50 µM | U-251 43.6 µM | SK-MEL-5 29.3 µM | NCI-H522 16.7 µM | MOLT-4 33.3 µM

CCCCCc1nnc(NS(=O)(=O)c2ccc(NC(=O)OCC(C)C)cc2)s1
36 µM: HCT-15
inactive: A498 2.64 µM | HT-29 26.8 µM | PC-3 36.8 µM | EKVX 33.3 µM | UACC-257 79.6 µM | OVCAR-3 30.3 µM | 786-0 40.8 µM | HCT-116 26.2 µM | MCF7 37.8 µM | A549 34.2 µM | COLO 205 18.5 µM | Hs-578T 51.2 µM | MDA-MB-231 36.2 µM | HOP-62 44.5 µM | OVCAR-8 32.2 µM | TK-10 36.9 µM | UACC-62 29.5 µM | SNB-19 69.3 µM | NCI-H23 53.2 µM | ACHN 34.7 µM | BT-549 32.1 µM | SR 16.4 µM | SW-620 40.6 µM | HL-60 31.2 µM | SN12C 33.9 µM | SF-295 37.5 µM | NCI-H460 31 µM | DU-145 52 µM | MDA-MB-435 33.7 µM | SF-539 26.8 µM | NCI/ADR-RES 39.4 µM | SK-OV-3 31.5 µM | LOX IMVI 37.2 µM | IGROV-1 25.7 µM | OVCAR-4 26.1 µM | SF-268 41.9 µM | UO-31 33.4 µM | OVCAR-5 54.7 µM | Malme-3M 34.9 µM | RXF 393 74.8 µM | CCRF-CEM 26.4 µM | SK-MEL-2 19.1 µM | HOP-92 24.1 µM | CAKI-1 36.2 µM | M14 41.9 µM | T47D 34.2 µM | RPMI-8226 19.3 µM | K562 25.2 µM | SK-MEL-28 41.8 µM | MDA-N 32.3 µM | KM12 36.1 µM | U-251 42.9 µM | SK-MEL-5 27.1 µM | NCI-H522 24.5 µM | MOLT-4 20.1 µM

COC(=O)[C@@H]1[C@H](O)CC[C@H]2[C@@]1(C)CC[C@@H](C)[C@]2(COC(C)=O)CC(=O)c1ccoc1
> 50 µM: HCT-15
inactive: A498 > 50 µM | HT-29 > 50 µM | PC-3 > 50 µM | EKVX > 50 µM | UACC-257 > 50 µM | OVCAR-3 > 50 µM | 786-0 > 50 µM | HCT-116 > 50 µM | MCF7 > 50 µM | A549 > 50 µM | COLO 205 > 50 µM | Hs-578T > 50 µM | MDA-MB-231 > 50 µM | OVCAR-8 > 50 µM | TK-10 > 50 µM | UACC-62 20.9 µM | SNB-19 > 50 µM | NCI-H23 > 50 µM | ACHN > 50 µM | BT-549 > 50 µM | SR > 50 µM | NCI-H226 > 50 µM | SW-620 > 50 µM | HL-60 17 µM | SNB-75 > 50 µM | SN12C > 50 µM | SF-295 > 50 µM | NCI-H460 > 50 µM | DU-145 > 50 µM | MDA-MB-435 > 50 µM | SF-539 > 50 µM | NCI/ADR-RES > 50 µM | SK-OV-3 > 50 µM | LOX IMVI > 50 µM | IGROV-1 > 50 µM | OVCAR-4 25.2 µM | SF-268 > 50 µM | UO-31 > 50 µM | OVCAR-5 > 50 µM | RXF 393 > 50 µM | CCRF-CEM 16.7 µM | SK-MEL-2 > 50 µM | HOP-92 > 50 µM | CAKI-1 > 50 µM | M14 > 50 µM | T47D 28.8 µM | RPMI-8226 26.1 µM | SK-MEL-28 > 50 µM | MDA-N > 50 µM | KM12 > 50 µM | U-251 > 50 µM | SK-MEL-5 > 50 µM | NCI-H522 35.7 µM | MOLT-4 28.6 µM

O=C1CCSc2c(cnc3ccccc23)N1
inactive: A498 32.1 µM | HT-29 > 100 µM | PC-3 49.7 µM | EKVX 32.1 µM | UACC-257 > 100 µM | OVCAR-3 65.5 µM | 786-0 > 100 µM | HCT-116 > 100 µM | MCF7 97.1 µM | A549 > 100 µM | COLO 205 > 100 µM | Hs-578T 31.3 µM | MDA-MB-231 > 100 µM | HOP-62 > 100 µM | OVCAR-8 > 100 µM | TK-10 71.6 µM | UACC-62 > 100 µM | NCI-H23 > 100 µM | ACHN > 100 µM | BT-549 27.4 µM | SR > 100 µM | NCI-H226 34.8 µM | SW-620 > 100 µM | HL-60 > 100 µM | SNB-75 27.7 µM | SN12C > 100 µM | SF-295 > 100 µM | NCI-H460 89.7 µM | DU-145 > 100 µM | MDA-MB-435 > 100 µM | SF-539 59.3 µM | NCI/ADR-RES > 100 µM | SK-OV-3 > 100 µM | LOX IMVI 58.2 µM | IGROV-1 > 100 µM | OVCAR-4 67.3 µM | SF-268 > 100 µM | UO-31 60.7 µM | OVCAR-5 > 100 µM | Malme-3M > 100 µM | RXF 393 34.4 µM | CCRF-CEM > 100 µM | SK-MEL-2 80 µM | HOP-92 > 100 µM | CAKI-1 56.8 µM | M14 > 100 µM | T47D > 100 µM | RPMI-8226 > 100 µM | K562 > 100 µM | SK-MEL-28 > 100 µM | MDA-N > 100 µM | KM12 > 100 µM | U-251 > 100 µM | SK-MEL-5 > 100 µM | NCI-H522 > 100 µM | MOLT-4 > 100 µM
> 100 µM: HCT-15
